Results from patent US7888289B2, “Heterocyclylethylbenzamide derivatives” (Bayer Cropscience AG, priority 2005, dated 2011).

Tested on: Alternaria brassicae
Experiment: In vivo test on Alternaria brassicae (radish plants, preventive spray)
Conditions: radish plants (Pernot variety), contaminated 24 hours after treatment, grading 6 to 7 days after contamination vs control plants, read-out: protection (good (at least 50%) to total); for pest or weed control at 330 ppm: dose of 330 ppm; for pest or weed control at 110 ppm: dose of 110 ppm
Method: The active ingredient tested is prepared by potter homogenisation in a concentrated suspension type formulation at 100 g/l. This suspension is then diluted with water to obtain the desired active material concentration.
Radish plants (Pernot variety) in starter cups, sown on a 50/50 peat soil-pozzolana substrate and grown at 18-20° C., are treated at the cotyledon stage by spraying with the aqueous suspension described above.
Plants, used as controls, are treated with an aqueous solution not containing the active material.
After 24 hours, the plants are contaminated by spraying them with an aqueous suspension of Alternaria brassicae spores (40,000 spores per cm^3). The spores are collected from a 12-13-day-old culture.
The contaminated radish plants are incubated for 6-7 days at about 18° C., under a humid atmosphere.
Grading is carried out 6 to 7 days after the contamination, in comparison with the control plants.

SMILES | pest or weed control at 330 ppm | pest or weed control at 110 ppm
O=C(NCCc1sccc1Cl)c1ccccc1C(F)(F)F [Compound A-5] | ≥ 50% | –
O=C(NCCc1sccc1Cl)c1ccccc1Br [Compound A-7] | ≥ 50% | –
Cc1ccccc1C(=O)NCCc1cn(C)nc1C(F)(F)F [Compound D-5] | ≥ 50% | –
Cn1cc(CCNC(=O)c2ccccc2Cl)c(C(F)(F)F)n1 [Compound D-4] | ≥ 50% | –
Cc1ccsc1CCNC(=O)c1ccccc1C(F)F [Compound A-1] | – | ≥ 50%
Cc1nc(CCNC(=O)c2ccccc2C(F)(F)F)sc1C [Compound B-2] | – | ≥ 50%
Cn1cc(CCNC(=O)c2ccccc2C(F)(F)F)c(C(F)(F)F)n1 [Compound D-1] | ≥ 50% | –
COc1cc(C(F)(F)F)nn1CCNC(=O)c1ccccc1Br [Compound E-1] | – | ≥ 50%
Cc1csc(CCNC(=O)c2ccccc2C(F)(F)F)n1 [Compound B-1] | ≥ 50% | –
Cc1nc(C)c(CCNC(=O)c2ccccc2Br)s1 [Compound C-2] | ≥ 50% | –
